“And” between values parts separate entries of the source, which are not always exact repeats. Equal entries are not always repeated. Structures can show the parent of a compound that is named as a salt.
Tests used:
[1] = tested on: β2AR–Gs peptide FRET sensor; assay: ∆FRET assay, β2AR–Gs peptide SPASM FRET sensor; details: isoproterenol 100 µM
PTH1R [2] = assay: cAMP accumulation, PTH1R; assay type: cell-based, human; details: PTH1R B2AR ICL3
Protocol: (§1) One millilitre of medium was removed from each well containing transfected cells. The remaining volume was used to gently shear and resuspend the cells by pipetting. The cell mixture was centrifuged (3 min, 300g) and media was removed using a vacuum manifold. […] The cells were washed once by repeating this procedure.
(§2) For all other second messenger assays, expression level and cell density of each condition was estimated through fluorescence. Fluorescence spectra for mCerulean (Horiba Fluoromax 4, excitation 430 nm, emission scan 450–600 nm, bandpass 4 nm) and mCitrine (Horiba Fluoromax 4, excitation 490 nm, emission scan 500–600 nm, bandpass 4 nm) were acquired for each condition. Cells were resuspended at 350,000 ± 30,000 fluorescence counts at a wavelength representing optical density of the sample (excitation 430 nm/emission 450 nm), corresponding with 2 × 10^6 ± 5 × 10^5 cells per m^l. This was confirmed by counting the cells on a haemocytometer (Countess II).
(§3) Resuspended cells were added 1:1 with a 2× concentration of ligand (10 µl final) into an opaque 384-well flat bottom plate (Greiner Bio-One). […] For dose–response curves, a saturating concentration of forskolin (10 µM) was included as a control to measure cAMP stimulation independent of the transfected receptor. […] For all other experiments, plates were incubated at room temperature for 10 min. […] Reactions were quenched and processed for the cAMP-Glo Assay (Promega) following the manufacturer’s instructions. Luminescence was measured on a Tecan Spark plate reader (500 ms integration, one measurement per well).

PTH1R [3] = molecular target: T1, PTH1R (Homo sapiens, UniProt Q03431); assay: cAMP accumulation, PTH1R; assay type: cell-based; details: PTH1R Wild-Type
T1 construct: expressed in transfected cells; host or cells: HEK 293T
T1 sequence (Q03431 27-593): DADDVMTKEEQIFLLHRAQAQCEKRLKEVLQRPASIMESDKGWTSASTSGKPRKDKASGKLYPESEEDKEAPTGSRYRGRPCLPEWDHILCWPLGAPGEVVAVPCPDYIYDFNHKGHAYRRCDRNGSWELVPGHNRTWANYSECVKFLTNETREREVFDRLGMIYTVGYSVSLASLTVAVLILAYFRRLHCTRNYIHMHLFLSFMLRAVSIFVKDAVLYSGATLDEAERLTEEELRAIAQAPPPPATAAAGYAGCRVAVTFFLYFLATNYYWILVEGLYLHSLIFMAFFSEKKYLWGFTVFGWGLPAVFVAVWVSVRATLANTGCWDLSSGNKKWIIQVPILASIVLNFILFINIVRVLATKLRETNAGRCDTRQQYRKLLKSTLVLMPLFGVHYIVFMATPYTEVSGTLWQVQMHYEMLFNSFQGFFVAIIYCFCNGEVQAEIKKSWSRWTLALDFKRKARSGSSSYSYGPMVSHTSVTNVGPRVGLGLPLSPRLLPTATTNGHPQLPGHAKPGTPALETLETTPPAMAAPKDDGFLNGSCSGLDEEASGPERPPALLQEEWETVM
Protocol: as §1, §2, §3

β2AR = β2AR (Homo sapiens, UniProt P07550); assay: Radiolabelled antagonist-binding assay (saturation); design: HA; expressed in transfected cells; host or cells: crude membrane extracts of transfected cells; Bmax / 125I-Cyanopindolol saturation binding signal: unit not given here; details: for Bmax / fmol 125I-Cyanopindolol/mg sample: replicates 1-3 and Average; for fmol 125I-Cyanopindolol/mg sample, Fit: fitted curve;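 as to all read-outs here: membranes expressing β2AR constructs, equilibrated with radioligand on ice, bound ligand retained on GF/C filters, Bmax normalized to membrane protein from a DC assay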
[4] = [Isoproterenol] log(M) -8.30103
[5] = [Isoproterenol] log(M) -9.30103
[6] = Wild-Type + Gs-peptide, 125I-Cyanopindolol 0.000239059 nM
[7] = Wild-Type + Gs-peptide, 125I-Cyanopindolol 0.0167722 nM
[8] = Wild-Type + Gs-peptide, 125I-Cyanopindolol 0.0344858 nM
[9] = Wild-Type + Gs-peptide, 125I-Cyanopindolol 0.073983 nM
[10] = Wild-Type + Gs-peptide, 125I-Cyanopindolol 0.202201 nM
[11] = Wild-Type + Gs-peptide, 125I-Cyanopindolol 0.415365 nM
[12] = Wild-Type + Gs-peptide, 125I-Cyanopindolol 0.83063 nM
[13] = Wild-Type + Gs-peptide, 125I-Cyanopindolol 1.64238 nM

CC(C)NCC(O)c1ccc(O)c(O)c1 (stereo not drawn) [Isoproterenol, isoproterenol (+)-bitartrate salt]
∆FRET (Isoproterenol - Buffer) ([1]; HVQ-AAA β2AR–Gs peptide sensor, single experiments N 1-5): 0.012 and 0.013 and 0.020
∆FRET (Isoproterenol - Buffer) ([1]; QDG-AAA β2AR–Gs peptide sensor, single experiments N 1-5): 0.021 and 0.017 and 0.027 and 0.030
∆FRET (Isoproterenol - Buffer) ([1]; Wild-Type β2AR–Gs peptide sensor, + 10 µM Gq-peptide, single samples): 0.034 and 0.026 and 0.018
∆FRET (Isoproterenol - Buffer) ([1]; Wild-Type β2AR–Gs peptide sensor, single experiments N 1-5): 0.014 and 0.016 and 0.017 and 0.019
∆FRET (Isoproterenol - Buffer) ([1]; Wild-Type β2AR–Gs peptide sensor, without Gq-peptide, single samples): 0.013 and 0.016 and 0.010 and 0.017 and 0.012
∆FRET (Isoproterenol - Buffer) ([1]; ∆ICL3 β2AR–Gs peptide sensor, without Gq-peptide, single samples): 0.022 and 0.020 and 0.025 and 0.024
cAMP (Isoproterenol/Forskolin Maximum), Average (PTH1R [2]; [Isoproterenol] log(M) -5): 0.73
cAMP (Isoproterenol/Forskolin Maximum), Average (PTH1R [2]; [Isoproterenol] log(M) -6): 0.71
cAMP (Isoproterenol/Forskolin Maximum), Average (PTH1R [2]; [Isoproterenol] log(M) -7): 0.69
cAMP (Isoproterenol/Forskolin Maximum), Average (PTH1R [2]; [Isoproterenol] log(M) -8): 0.49
cAMP (Isoproterenol/Forskolin Maximum), Average (PTH1R [2]; [4]): 0.39
cAMP (Isoproterenol/Forskolin Maximum), Average (PTH1R [2]; [Isoproterenol] log(M) -9): 0.0653
cAMP (Isoproterenol/Forskolin Maximum), Average (PTH1R [2]; [5]): 0.0238
cAMP (Isoproterenol/Forskolin Maximum), Average (PTH1R [2]; [Isoproterenol] log(M) -10): -0.0474
cAMP (Isoproterenol/Forskolin Maximum), Average (PTH1R [2]; [Isoproterenol] log(M) -11): 0.02
cAMP (Isoproterenol/Forskolin Maximum), Average (PTH1R [2]; [Isoproterenol] log(M) -12): -0.0165
cAMP (Isoproterenol/Forskolin Maximum), Average (PTH1R [3]; [Isoproterenol] log(M) -5): 0.55
cAMP (Isoproterenol/Forskolin Maximum), Average (PTH1R [3]; [Isoproterenol] log(M) -6): 0.57
cAMP (Isoproterenol/Forskolin Maximum), Average (PTH1R [3]; [Isoproterenol] log(M) -7): 0.59
cAMP (Isoproterenol/Forskolin Maximum), Average (PTH1R [3]; [Isoproterenol] log(M) -8): 0.43
cAMP (Isoproterenol/Forskolin Maximum), Average (PTH1R [3]; [4]): 0.44
cAMP (Isoproterenol/Forskolin Maximum), Average (PTH1R [3]; [Isoproterenol] log(M) -9): 0.10
cAMP (Isoproterenol/Forskolin Maximum), Average (PTH1R [3]; [5]): 0.00476
cAMP (Isoproterenol/Forskolin Maximum), Average (PTH1R [3]; [Isoproterenol] log(M) -10): -0.0216
cAMP (Isoproterenol/Forskolin Maximum), Average (PTH1R [3]; [Isoproterenol] log(M) -11): -0.00704
cAMP (Isoproterenol/Forskolin Maximum), Average (PTH1R [3]; [Isoproterenol] log(M) -12): -0.08

[^125I](±)-cyanopindolol
125I-Cyanopindolol saturation binding signal (β2AR; Wild-Type + 30 µM Gq-peptide, 0.0283 nM, Average): 147.58
125I-Cyanopindolol saturation binding signal (β2AR; Wild-Type + 30 µM Gq-peptide, 0.0283 nM, Fit): 291.67
125I-Cyanopindolol saturation binding signal (β2AR; Wild-Type + 30 µM Gq-peptide, 0.0283 nM, experiments 1-3): 132.79 and 160.83 and 149.12
125I-Cyanopindolol saturation binding signal (β2AR; Wild-Type + 30 µM Gq-peptide, 0.0474 nM, Average): 534.47
125I-Cyanopindolol saturation binding signal (β2AR; Wild-Type + 30 µM Gq-peptide, 0.0474 nM, Fit): 446.28
125I-Cyanopindolol saturation binding signal (β2AR; Wild-Type + 30 µM Gq-peptide, 0.0474 nM, experiments 1-3): 334.07 and 648.49 and 620.85
125I-Cyanopindolol saturation binding signal (β2AR; Wild-Type + 30 µM Gq-peptide, 0.10 nM, Average): 767.43
125I-Cyanopindolol saturation binding signal (β2AR; Wild-Type + 30 µM Gq-peptide, 0.10 nM, Fit): 753.07
125I-Cyanopindolol saturation binding signal (β2AR; Wild-Type + 30 µM Gq-peptide, 1.85 nM, Average): 1934.67
125I-Cyanopindolol saturation binding signal (β2AR; Wild-Type + 30 µM Gq-peptide, 1.85 nM, Fit): 1934.64
Bmax (β2AR; Wild-Type + Gs-pep): 2030.45 and 2045.98 and 1796.67
Bmax (β2AR; Wild-Type + Gs-pep, mean): 1957.70
fmol 125I-Cyanopindolol/mg sample, Fit (β2AR; [6]): 0.00E+00 fmol/mg sample
fmol 125I-Cyanopindolol/mg sample (β2AR; [6]): -0.7197 fmol/mg sample and 0.9706 fmol/mg sample and -1.162 fmol/mg sample
fmol 125I-Cyanopindolol/mg sample (β2AR; Wild-Type + Gs-peptide, 125I-Cyanopindolol 0.000239059 nM, mean): -0.3038 fmol/mg sample
fmol 125I-Cyanopindolol/mg sample, Fit (β2AR; [7]): 4.58E+02 fmol/mg sample
fmol 125I-Cyanopindolol/mg sample (β2AR; [7]): 412.161 fmol/mg sample and 473.943 fmol/mg sample and 418.268 fmol/mg sample
fmol 125I-Cyanopindolol/mg sample (β2AR; Wild-Type + Gs-peptide, 125I-Cyanopindolol 0.0167722 nM, mean): 434.79 fmol/mg sample
fmol 125I-Cyanopindolol/mg sample, Fit (β2AR; [8]): 7.83E+02 fmol/mg sample
fmol 125I-Cyanopindolol/mg sample (β2AR; [8]): 735.259 fmol/mg sample and 854.634 fmol/mg sample and 743.19 fmol/mg sample
fmol 125I-Cyanopindolol/mg sample (β2AR; Wild-Type + Gs-peptide, 125I-Cyanopindolol 0.0344858 nM, mean): 777.694 fmol/mg sample
fmol 125I-Cyanopindolol/mg sample, Fit (β2AR; [9]): 1.18E+03 fmol/mg sample
fmol 125I-Cyanopindolol/mg sample (β2AR; [9]): 1168.59 fmol/mg sample and 1355.16 fmol/mg sample and 1153.34 fmol/mg sample
fmol 125I-Cyanopindolol/mg sample (β2AR; Wild-Type + Gs-peptide, 125I-Cyanopindolol 0.073983 nM, mean): 1225.7 fmol/mg sample
fmol 125I-Cyanopindolol/mg sample, Fit (β2AR; [10]): 1.61E+03 fmol/mg sample
fmol 125I-Cyanopindolol/mg sample (β2AR; [10]): 1680.99 fmol/mg sample and 1767.57 fmol/mg sample and 1409.36 fmol/mg sample
fmol 125I-Cyanopindolol/mg sample (β2AR; Wild-Type + Gs-peptide, 125I-Cyanopindolol 0.202201 nM, mean): 1619.31 fmol/mg sample
fmol 125I-Cyanopindolol/mg sample, Fit (β2AR; [11]): 1.79E+03 fmol/mg sample
fmol 125I-Cyanopindolol/mg sample (β2AR; [11]): 1709.61 fmol/mg sample and 1882.35 fmol/mg sample and 1548.71 fmol/mg sample
fmol 125I-Cyanopindolol/mg sample (β2AR; Wild-Type + Gs-peptide, 125I-Cyanopindolol 0.415365 nM, mean): 1713.56 fmol/mg sample
fmol 125I-Cyanopindolol/mg sample, Fit (β2AR; [12]): 1.88E+03 fmol/mg sample
fmol 125I-Cyanopindolol/mg sample (β2AR; [12]): 1837.2 fmol/mg sample and 2069.95 fmol/mg sample and 1681.21 fmol/mg sample
fmol 125I-Cyanopindolol/mg sample (β2AR; Wild-Type + Gs-peptide, 125I-Cyanopindolol 0.83063 nM, mean): 1862.79 fmol/mg sample
fmol 125I-Cyanopindolol/mg sample, Fit (β2AR; [13]): 1.93E+03 fmol/mg sample
fmol 125I-Cyanopindolol/mg sample (β2AR; [13]): 2102.36 fmol/mg sample and 2003.58 fmol/mg sample and 1852.88 fmol/mg sample
fmol 125I-Cyanopindolol/mg sample (β2AR; Wild-Type + Gs-peptide, 125I-Cyanopindolol 1.64238 nM, mean): 1986.27 fmol/mg sample
125I-Cyanopindolol saturation binding signal (β2AR; Wild-Type, 0.0283 nM, Average): 144.50
125I-Cyanopindolol saturation binding signal (β2AR; Wild-Type, 0.0283 nM, Fit): 400.71
125I-Cyanopindolol saturation binding signal (β2AR; Wild-Type, 0.0474 nM, Average): 627.51
125I-Cyanopindolol saturation binding signal (β2AR; Wild-Type, 0.0474 nM, Fit): 590.99
125I-Cyanopindolol saturation binding signal (β2AR; Wild-Type, 0.10 nM, Average): 1200.07
125I-Cyanopindolol saturation binding signal (β2AR; Wild-Type, 0.10 nM, Fit): 964.14
125I-Cyanopindolol saturation binding signal (β2AR; Wild-Type, 1.85 nM, Average): 2740.91
125I-Cyanopindolol saturation binding signal (β2AR; Wild-Type, 1.85 nM, Fit): 2640.83
125I-Cyanopindolol saturation binding signal (β2AR; Wild-Type, 1.85 nM, experiments 1-3): 2770.91 and 2891.39 and 2560.43
fmol 125I-Cyanopindolol/mg sample, Fit (β2AR; Wild-Type, 125I-Cyanopindolol 0.0198458 nM (Average)): 3.84E+02 fmol/mg sample
fmol 125I-Cyanopindolol/mg sample, Fit (β2AR; Wild-Type, 125I-Cyanopindolol 0.0420593 nM (Average)): 7.28E+02 fmol/mg sample
fmol 125I-Cyanopindolol/mg sample, Fit (β2AR; Wild-Type, 125I-Cyanopindolol 0.234223 nM (Average)): 1.65E+03 fmol/mg sample
fmol 125I-Cyanopindolol/mg sample, Fit (β2AR; Wild-Type, 125I-Cyanopindolol 0.468204 nM (Average)): 1.86E+03 fmol/mg sample
fmol 125I-Cyanopindolol/mg sample, Fit (β2AR; Wild-Type, 125I-Cyanopindolol 0.871756 nM (Average)): 1.97E+03 fmol/mg sample
fmol 125I-Cyanopindolol/mg sample, Fit (β2AR; Wild-Type, 125I-Cyanopindolol 1.70257 nM (Average)): 2.02E+03 fmol/mg sample
Bmax (β2AR; Wild-Type): 2241.12 and 1916.49 and 2106.37
Bmax (β2AR; Wild-Type, mean): 2087.99

— paper PMC10033409, “Autoregulation of GPCR signalling through the third intracellular loop” (Nature, 2023)
